Drawing on PubChem BioAssay (NCI), this text covers TGI for seven molecules.

Common to all, as to assay: DTP human tumour cell line panel, 48 h
Experiment [1] deals with HCT-15 colon.
Experiment [2] deals with SNB-75 CNS.
Experiment [3] relates to RPMI-8226 leukemia.
Experiment [4] has as its system HOP-62 NSCLC.
Experiment [5] deals with U251 CNS.
In experiment [6] the test system is HCC-2998 colon.
Experiment [7] relates to T-47D breast.
Experiment [8] deals with A498 renal.
Experiment [9] relates to A549 NSCLC.
Experiment [10] deals with SR leukemia.
Experiment [11] has as its system EKVX NSCLC.
In experiment [12] the test system is NCI-H23 lung.
Experiment [13] relates to UO-31 renal.
Experiment [14] deals with TK-10 renal.
The test system of experiment [15] is UACC-62 melanoma.
Experiment [16] concerns HCT-116 colon.
In experiment [17] the test system is SK-MEL-5 melanoma.
Experiment [18] deals with SNB-19 CNS.
Experiment [19] concerns SK-MEL-2 melanoma.
Experiment [20] relates to PC-3 prostate.

Molecules are shown by their SMILES.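 Following 48 hours of exposure in 96-well plates, responses at five concentrations were used to interpolate endpoints linearly. At the TGI there is no net growth.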 Some results are limits rather than exact numbers.

The TGI is the concentration at which net growth stops. Higher therefore signals less potent growth arrest. Turning to `Cc1ccc(-c2c(-c3ccccc3)[nH]c(C)c2C(=O)ONC(=O)c2ccccc2)cc1`, the TGI in experiment [1] is 24.1 µM; in [2], 7.21 µM; in [3], 29.5 µM; in experiment [4], 4.66 µM; in experiment [5] it was 4.07 µM; in experiment [6] it was 28.9 µM. For the same molecule, the TGI was 19.9 µM in [7]; 25.5 µM in experiment [8]; 7.65 µM in experiment [9]; 5.36 µM in [10]; above 50.3 µM in [11]; 17.4 µM in experiment [12]. The TGI worked out at 3.86 µM in experiment [13]; 18.2 µM in experiment [14]; 22.2 µM in [15]; 7.27 µM in experiment [16]; 18.3 µM in experiment [17]; 20.1 µM in experiment [18]. Besides, the TGI in experiment [19] amounted to 16.2 µM; in experiment [20] it was 18.7 µM.
For the molecule `C=C1C[C@@H](O)[C@@H](Br)C(C)(C)[C@@]12C=CC(=O)CC2`, the TGI in experiment [1], in [2], in [3], in experiment [4], in experiment [5] and in experiment [6] was above 100 µM throughout. Also, the TGI was above 100 µM in experiment [7]; above 100 µM in experiment [8]; above 100 µM in experiment [9]; above 100 µM in [10]; above 51.8 µM in experiment [11]; above 100 µM in experiment [12]. The TGI in experiment [13], in [14], in experiment [15], in [16], in experiment [17] and in experiment [18] was above 100 µM throughout. The results for the TGI in [19] and in experiment [20] were above 100 µM and 7.97 µM, respectively.
Consider `C[C@@H](C[C@H]1OC(C)(C)O[C@@H]1C(C)(C)O)[C@H]1CC=C2[C@]3(C)[C@H](O)C[C@H]4C(C)(C)[C@H](O)CC[C@]4(C)[C@H]3CC[C@]21C`, for which the TGI in [1] is 14.9 µM; in experiment [2] it was 19.8 µM; in experiment [3], 12.8 µM; in [4] it was 20.7 µM; in experiment [5] it was 15 µM; in experiment [6], 15.8 µM. Moreover, the TGI in experiment [7] is 43.2 µM; in experiment [8], 18.5 µM; in experiment [9], 15.2 µM; in experiment [10], 11.3 µM; in [11], 21.9 µM; in experiment [12], 26.1 µM. In addition, the TGI in experiment [13] is 23.7 µM; in [14] it was 17.8 µM; in experiment [15], 34 µM; in experiment [16] it was 16 µM; in experiment [17] it was 18.3 µM; in experiment [18] it was 20.7 µM. Also, the TGI turned out to be 24.7 µM in [19] and 14.6 µM in experiment [20].
For `Cc1nc2ccc(S(=O)(=O)NS(=O)(=O)c3ccc(-c4ccccc4)cc3)cc2c(=O)n1NS(=O)(=O)c1ccc(-c2ccccc2)cc1`, the TGI in experiment [1], in experiment [2], in [3], in [4], in experiment [5] and in experiment [6] was above 100 µM each time. The total growth inhibition concentration (TGI) in experiment [7], in experiment [8], in [9], in experiment [10], in experiment [11] and in [12] was above 100 µM throughout. The TGI in experiment [13], in experiment [14], in experiment [15], in experiment [16], in experiment [17] and in experiment [18] was above 100 µM each time. The TGI in [19] and in experiment [20] was above 100 µM each time.
With `CCC(=O)N/S(=N/S(=O)(=O)c1ccccc1)C(Cl)(Cl)Cl` (stereo not given), the TGI in experiment [1], in [2], in experiment [3], in [4], in experiment [5] and in [6] was above 100 µM each time. Also, the TGI in [7], in [8], in [9], in experiment [10], in experiment [11] and in [12] was above 100 µM throughout. In addition, the TGI in experiment [13], in [14], in [15], in experiment [16], in experiment [17] and in experiment [18] was above 100 µM each time. Besides, the TGI in [19] and in [20] was above 100 µM throughout.
Turning to `CC(Oc1ccc(Oc2cnc3ccc(Cl)cc3n2)cc1)C(=O)O` (stereo not given), the TGI in experiment [1], in experiment [2], in [3], in [4], in [5] and in experiment [6] was above 100 µM each time. Moreover, the TGI in experiment [7], in experiment [8], in [9], in [10], in experiment [11] and in experiment [12] was above 100 µM each time. For the same molecule, the TGI in experiment [13], in experiment [14], in experiment [15], in [16], in [17] and in [18] was above 100 µM throughout. Besides, the total growth inhibition concentration (TGI) in experiment [19] and in [20] was above 100 µM each time.
With `COc1ccc(-c2c(-c3ccccc3)c(C)c3ccccn23)cc1`, the TGI in [1], in [2], in experiment [3], in experiment [4], in experiment [5] and in experiment [6] was above 100 µM throughout. Further, the TGI in [7], in experiment [8], in [9], in experiment [10], in experiment [11] and in [12] was above 100 µM each time. For the same molecule, the TGI in [13], in experiment [14], in experiment [15], in experiment [16], in experiment [17] and in experiment [18] was above 100 µM throughout. Also, the TGI in experiment [19] and in experiment [20] was above 100 µM each time.
